Assay results as given in patent US8802686B2, “Sulfone-substituted anilinopyrimidine derivatives as CDK inhibitors, the production thereof, and use as a medicine” (Bayer Intellectual Property GmbH, priority 2008, dated 2014).
pIC50: −log10 of the molar value. Where two headings read alike, the source gives them in different places.

Columns and labels:
[1] = test system: HeLa-MaTu-ADR (HeLa-MaTu-MDR, multiple drug-resistant human cervix carcinoma cells); assay: Proliferation assay (Assay 5), HeLa-MaTu-ADR; format: cell-based; details: 96 h, read-out: Concentration of the half-maximal inhibition of the cell proliferation, IC50
Excerpt: (§1) Cultivated human tumour cells (MCF7, hormone-independent human breast carcinoma cells, acquired from ATCC HTB22; NCI-H460, human non-small-cell lung carcinoma cells, ATCC HTB-177; DU 145, hormone-independent human prostrate carcinoma cells, ATCC HTB-81; HeLa-MaTu, human cervix carcinoma cells, EPO-GmbH, Berlin; HeLa-MaTu-MDR, multiple drug-resistant human cervix carcinoma cells, EPO-GmbH, Berlin; Caco-2, human colon carcinoma cells, ATCC HTB-37; B16F10, murine melanoma cell, ATCC CRL-6475) were plated out at a density of ca. 1000-5000 cells/measuring point, depending on the growth rate of the particular cells, in a 96-well multititre plate in 200 μl of the corresponding growth medium. After 24 hours, the cells of one plate (zero-point plate) were stained with crystal violet (see below), whereas the medium of the other plates was replaced with fresh culture medium (200 μl), to which the test substances had been added at different concentrations (0 μM, and in the range 0.003-3 μM; the final concentration of the solvent dimethyl sulphoxide was 0.5%). The cells were incubated for 4 days in the presence of the test substances. Cell proliferation was determined by staining the cells with crystal violet: the cells were fixed by adding 20 μl/measuring point of an 11% glutaraldehyde solution for 15 min at room temperature. After washing the fixed cells with water three times, the plates were dried at room temperature. The cells were stained by adding 100 μl/measuring point of a 0.1% crystal violet solution (pH adjusted to pH 3 by adding acetic acid). After washing the stained cells with water three times, the plates were dried at room temperature. The dye was dissolved by adding 100 μl/measuring point of a 10% acetic acid solution. The extinction was determined photometrically at a wavelength of 595 nm. […] The IC50 values were determined by means of a 4-parameter fit using the company's own software.

[2] = test system: NCI-H460, human non-small-cell lung carcinoma cells; assay: Proliferation assay (Assay 5), NCI-H460; format: cell-based; details: read-out: Concentration of the half-maximal inhibition of the cell proliferation, IC50
Excerpt: as §1

[3] = Permeability assay (Assay 6), Caco-2 monolayer; format: in vitro ADME; details: human; for efflux ratio at 90 min: Caco-2, read-out: ratio (b-a)/(a-b); for Papp A→B at 90 min / Papp B→A at 90 min: Caco-2, 90 min, 37° C.; for Papp A→B at 90 min: read-out: Permeation coefficient, Papp apical-basolateral (a-b); for Papp B→A at 90 min: read-out: Permeation coefficient, Papp basolateral-apical (b-a)
Experimental: The Caco-2 monolayer is a barrier between 2 compartments. The cells here behave similarly to the small intestine cells. Active ingredients can be transported either paracellularly or transcellularly. Here, the transport takes place in most cases from apical (luminal) to basolateral (serosal). In the case of p-glycoprotein substrates, back-transport from basolateral to apical is also usually observed.
Experimental procedure: The permeability test is carried out both from apical to basolateral and also from basolateral to apical. For this, two filters are used per substance; incubation takes place over 90 min at 37° C. in a water bath. […] As reference substances, (i) PEG 4000 are used as hydrophilic marker. On account of its high molecular weight, it is unable to permeate into the cell membrane or into the pores of the tight junctions. PEG 4000 is therefore a marker of the intactness of the cell monolayer and the narrowness of the tight junctions. PEG 4000 is not absorbed in humans. (ii) Clonidine is known as completely absorbed substances in people (100%). They serve as markers for very highly permeable substances with Papp values above 100 nm/s. (iii) Digoxin is a known Pgp substrate. […] In the reverse experiment (basolateral to apical), the Papp values should be higher by a factor of about 10 as a result of the active directional transport into the apical compartment.
The permeation coefficient Papp is used to estimate the absorption in people according to the following scheme: […]

[4] = test system: B16F10, murine melanoma cell; assay: Proliferation assay (Assay 5), B16F10; format: cell-based; details: Mus musculus, B16-F10, 96 h, read-out: Concentration of the half-maximal inhibition of the cell proliferation, IC50
Excerpt: as §1

[5] = molecular target: VEGF receptor tyrosine kinase-2 (VEGF-R2) (Homo sapiens (Human), UniProt P35968); assay: VEGF receptor-2 kinase assay (Assay 4); format: biochemical; details: read-out: VEGF-R2 (Assay 4) Concentration of the half-maximal inhibition of the enzyme activity, IC50
Chain of VEGF receptor tyrosine kinase-2 (VEGF-R2) (P35968 20-1356, species assumed): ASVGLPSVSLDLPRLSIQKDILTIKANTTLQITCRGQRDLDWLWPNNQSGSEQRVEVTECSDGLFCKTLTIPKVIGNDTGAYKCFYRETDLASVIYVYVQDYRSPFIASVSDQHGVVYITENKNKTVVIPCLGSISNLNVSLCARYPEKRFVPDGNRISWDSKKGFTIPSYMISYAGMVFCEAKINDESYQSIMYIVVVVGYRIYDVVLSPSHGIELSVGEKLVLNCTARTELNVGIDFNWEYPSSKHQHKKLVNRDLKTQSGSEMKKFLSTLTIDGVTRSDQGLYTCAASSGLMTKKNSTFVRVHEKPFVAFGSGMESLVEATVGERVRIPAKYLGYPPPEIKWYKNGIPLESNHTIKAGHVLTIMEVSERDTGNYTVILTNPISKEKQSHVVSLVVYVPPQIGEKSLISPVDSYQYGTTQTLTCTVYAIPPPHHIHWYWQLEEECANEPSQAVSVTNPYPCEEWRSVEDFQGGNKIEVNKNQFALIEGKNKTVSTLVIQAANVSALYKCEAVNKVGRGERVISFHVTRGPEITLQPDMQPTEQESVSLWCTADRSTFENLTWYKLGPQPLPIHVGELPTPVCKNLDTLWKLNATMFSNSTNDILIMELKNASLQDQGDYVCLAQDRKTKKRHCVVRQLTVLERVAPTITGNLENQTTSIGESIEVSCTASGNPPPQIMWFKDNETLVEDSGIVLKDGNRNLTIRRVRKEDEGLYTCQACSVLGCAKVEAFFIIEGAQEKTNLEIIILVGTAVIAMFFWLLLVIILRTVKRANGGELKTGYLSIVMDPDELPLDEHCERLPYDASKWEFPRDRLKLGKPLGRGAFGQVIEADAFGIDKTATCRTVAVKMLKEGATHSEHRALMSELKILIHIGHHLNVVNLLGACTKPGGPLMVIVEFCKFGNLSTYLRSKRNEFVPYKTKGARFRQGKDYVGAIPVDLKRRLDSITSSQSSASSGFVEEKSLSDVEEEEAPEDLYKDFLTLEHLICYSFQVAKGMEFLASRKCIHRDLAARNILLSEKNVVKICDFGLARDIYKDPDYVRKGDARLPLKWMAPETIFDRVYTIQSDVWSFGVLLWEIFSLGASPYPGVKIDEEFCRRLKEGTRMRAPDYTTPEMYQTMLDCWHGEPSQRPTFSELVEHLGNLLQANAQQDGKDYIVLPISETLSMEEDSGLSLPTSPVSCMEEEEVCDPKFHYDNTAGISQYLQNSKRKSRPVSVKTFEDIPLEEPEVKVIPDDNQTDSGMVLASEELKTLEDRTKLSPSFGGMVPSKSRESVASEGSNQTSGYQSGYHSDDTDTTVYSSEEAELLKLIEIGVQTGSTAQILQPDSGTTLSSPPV
Experimental: Recombinant VEGF receptor tyrosine kinase-2 was purified as GST fusion protein from baculovirus-infected insect cells (Sf9). Poly-(Glu4Tyr), which was used as kinase substrate, was purchased from Sigma.
VEGF receptor tyrosine kinase (90 ng/measuring point) was incubated for 10 min at 22° C. in the presence of different concentrations of test substances (0 μM, and within the range 0.001-10 μM) in 30 μl of assay buffer [40 mM Tris/HCl pH 5.5; 10 mM MgCl2; 1 mM MnCl2; 3 μM Na ortho-vanadate; 1.0 mM dithiothreitol; 8 μM adenosine trisphosphate (ATP); 0.96 μg/measuring point poly-(Glu4Tyr); 0.2 μCi/measuring point ^33P-gamma ATP; 1.4% dimethyl sulphoxide]. The reaction was stopped by adding EDTA solution (250 mM; pH 8.0; 15 μl/measuring point).
(§2) From each reaction mixture, 15 μl were applied to P30 filter strips (Wallac), and unincorporated ^33P-ATP was removed by washing the filter strips three times, for 10 min in each case, in 0.5% phosphoric acid. After drying the filter strips for 1 hour at 70° C., the filter strips were covered with scintillator strips (MeltiLex™ A, Wallac) and stoved for 1 hour at 90° C. The amount of incorporated ^33P (substrate phosphorylation) was determined by scintillation measurement in a gamma-radiation measuring instrument (Wallac). […] The IC50 values were determined by means of a 4-parameter fit using the company's own software.

CDK4/CycD1 = CDK4/CycD1 (Homo sapiens (Human), UniProt P11802); assay: CDK4/CycD kinase assay (Assay 3); format: biochemical; details: read-out: CDK4/CycD (Assay 3) Concentration of the half-maximal inhibition of the enzyme activity, IC50
Chain of CDK4/CycD1 (P11802 whole entry, the tested form may be a part): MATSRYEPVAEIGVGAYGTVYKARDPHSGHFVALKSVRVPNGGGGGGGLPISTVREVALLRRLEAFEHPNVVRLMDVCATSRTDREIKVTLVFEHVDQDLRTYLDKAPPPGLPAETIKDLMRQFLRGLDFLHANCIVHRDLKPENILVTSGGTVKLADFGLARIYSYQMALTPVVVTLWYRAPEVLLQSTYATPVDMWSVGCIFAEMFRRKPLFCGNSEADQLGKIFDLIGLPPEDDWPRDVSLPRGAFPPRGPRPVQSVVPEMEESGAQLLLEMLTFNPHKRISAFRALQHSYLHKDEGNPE
Chain of CDK4/CycD1 (P24385 whole entry partner, the tested form may be a part): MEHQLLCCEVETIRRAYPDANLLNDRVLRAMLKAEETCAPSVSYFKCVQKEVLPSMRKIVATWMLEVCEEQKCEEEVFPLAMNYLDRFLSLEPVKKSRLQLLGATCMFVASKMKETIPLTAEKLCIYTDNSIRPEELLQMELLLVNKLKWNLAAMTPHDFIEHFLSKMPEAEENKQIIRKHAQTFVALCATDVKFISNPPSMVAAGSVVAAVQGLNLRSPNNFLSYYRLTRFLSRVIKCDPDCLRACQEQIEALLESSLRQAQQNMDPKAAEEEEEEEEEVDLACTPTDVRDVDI
Experimental: Recombinant CDK4 and CycD1-GST fusion proteins, purified from baculovirus-infected insect cells (Sf9), were purchased from ProQinase GmbH, Freiburg. CDK4/CycD1 (250 ng/measuring point) was incubated for 3 hours at 22° C. in the presence of different concentrations of test substances (0 μM, and within the range 0.001-10 μM) in 31 μl of assay buffer [50 mM Hepes pH 7.0; 2.5 mM MnCl; 0.05 mM Na ortho-vanadate; 1.0 mM dithiothreitol; 0.25 μM adenosine trisphosphate (ATP); 0.5 μM biotinylated myelin basic protein (bio-MPB, GE Healthcare); 0.05 μCi/measuring point ^33P-gamma ATP; 0.005% NP40; 0.025% bovine serum albumin; 3% dimethyl sulphoxide]. The reaction was stopped by adding 50 μl of stop-mix [100 μM ATP; 10 mM EDTA pH 8.0; 0.2% Triton X100; 0.125 mg of streptavidin-SPA Beads (GE Healthcare)]. After incubation for 10 min at room temperature, the SPA beads were pelleted by centrifugation (10 min; 1500 g). The amount of incorporated ^33P (substrate phosphorylation) was determined by scintillation measurement in a beta-radiation measuring instrument (Microbeta, Perkin Elmer).

CDK1/CycB = CDK1/CycB (Homo sapiens (Human), UniProt P06493); assay: CDK1/CycB kinase assay (Assay 1); format: biochemical; details: read-out: CDK1/CycB (Assay 1) Concentration of the half-maximal inhibition of the enzyme activity, IC50
Chain of CDK1/CycB (P06493 whole entry): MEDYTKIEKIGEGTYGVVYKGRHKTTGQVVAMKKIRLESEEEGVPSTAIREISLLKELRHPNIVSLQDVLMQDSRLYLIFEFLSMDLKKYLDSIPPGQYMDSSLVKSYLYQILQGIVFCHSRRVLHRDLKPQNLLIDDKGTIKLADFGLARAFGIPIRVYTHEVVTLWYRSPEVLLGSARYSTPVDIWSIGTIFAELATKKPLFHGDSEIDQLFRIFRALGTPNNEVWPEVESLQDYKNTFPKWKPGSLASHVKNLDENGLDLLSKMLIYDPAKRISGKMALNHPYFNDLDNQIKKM
Chain of CDK1/CycB (P14635 whole entry partner): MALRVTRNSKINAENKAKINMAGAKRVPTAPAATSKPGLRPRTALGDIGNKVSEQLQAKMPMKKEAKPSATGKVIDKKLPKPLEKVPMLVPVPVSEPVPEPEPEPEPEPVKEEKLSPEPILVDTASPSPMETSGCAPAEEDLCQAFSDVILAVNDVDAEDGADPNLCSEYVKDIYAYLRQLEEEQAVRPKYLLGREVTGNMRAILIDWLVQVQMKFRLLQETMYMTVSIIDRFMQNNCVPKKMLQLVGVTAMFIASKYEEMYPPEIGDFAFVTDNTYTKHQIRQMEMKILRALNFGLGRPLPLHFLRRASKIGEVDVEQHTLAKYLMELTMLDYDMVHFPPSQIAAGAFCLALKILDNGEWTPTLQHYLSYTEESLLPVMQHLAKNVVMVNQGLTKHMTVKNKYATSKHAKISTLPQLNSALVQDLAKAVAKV
Experimental: CDK1/CycB (200 ng/measuring point) was incubated for 10 min at 22° C. in the presence of different concentrations of test substances (0 and within the range 0.001-10 μM) in assay buffer [50 mM Tris/HCl pH 8.0; 10 mM MgCl2; 0.1 mM Na ortho-vanadate; 1.0 mM dithiothreitol; 0.5 μM adenosine trisphosphate (ATP); 10 μg/measuring point histone IIIS; 0.2 μCi/measuring point ^33P-gamma ATP; 0.05% NP40; 1.25% dimethyl sulphoxide]. The reaction was stopped by adding EDTA solution (250 mM; pH 8.0; 15 μl/measuring point).
From each reaction mixture, 15 μl were applied to P30 filter strips (Wallac), and unincorporated ^33P-ATP was removed by washing the filter strips three times, for 10 min in each case, in 0.5% phosphoric acid. After drying the filter strips for 1 hour at 70°, the filter strips were covered with scintillator strips (MeltiLex™ A, Wallac) and stoved for 1 hour at 90° C. The amount of incorporated ^33P (substrate phosphorylation) was determined by scintillation measurement in a gamma-radiation measuring instrument (Wallac). […] The IC50 values were determined by means of a 4-parameter fit using the company's own software.

CDK2/CycE = CDK2/CycE (Homo sapiens (Human), UniProt P24941); assay: CDK2/CycE kinase assay (Assay 2); format: biochemical; details: read-out: CDK2/CycE (Assay 2) Concentration of the half-maximal inhibition of the enzyme activity, IC50
Experimental: Recombinant CDK2 and CycE-GST fusion proteins, purified from baculovirus-infected insect cells (Sf9), were purchased from ProQinase GmbH, Freiburg. Histone IIIS, which was used as kinase substrate, was purchased from Sigma.
CDK2/CycE (50 mg/measuring point) was incubated for 10 min at 22° C. in the presence of different concentrations of test substances (0 μM, and within the range 0.001-10 μM) in assay buffer [50 mM Tris/HCl pH 8.0; 10 mM MgCl2; 0.1 mM Na ortho-vanadate; 1.0 mM dithiothreitol; 0.5 μM adenosine trisphosphate (ATP); 10 μg/measuring point histone IIIS; 0.2 μCi/measuring point ^33P-gamma ATP; 0.05% NP40; 1.25% dimethyl sulphoxide]. The reaction was stopped by adding EDTA solution (250 mM; pH 8.0; 15 μl/measuring point).
as §2

[6] = test system: DU 145, hormone-independent human prostrate carcinoma cells; assay: Proliferation assay (Assay 5), DU145; format: cell-based; details: DU-145, 96 h, read-out: Concentration of the half-maximal inhibition of the cell proliferation, IC50
Excerpt: as §1

[7] = test system: MCF7, hormone-independent human breast carcinoma cells; assay: Proliferation assay (Assay 5), MCF7; format: cell-based; details: read-out: Concentration of the half-maximal inhibition of the cell proliferation, IC50
Excerpt: as §1

[8] = test system: Caco-2, human colon carcinoma cells; assay: Proliferation assay (Assay 5), Caco-2; format: cell-based; details: read-out: Concentration of the half-maximal inhibition of the cell proliferation, IC50
Excerpt: as §1

[9] = reference substance; cited from earlier work
Caco-2 monolayer = details: reference substance, cited from earlier work
[10] = test system: HeLa-MaTu, human cervix carcinoma cells; assay: Proliferation assay (Assay 5), HeLa-MaTu; format: cell-based; details: 96 h, read-out: Concentration of the half-maximal inhibition of the cell proliferation, IC50
Excerpt: as §1

Row | Structure (SMILES) | pIC50 ([1]; HeLa-MaTu-ADR, 4 days) | pIC50 ([2]; 96 h, NCI-H460, 4 days) | efflux ratio at 90 min [3] | Papp A→B at 90 min [3] | Papp B→A at 90 min [3] | pIC50 ([4]; B16F10, 4 days) | pIC50 [5] | pIC50 (CDK4/CycD1) | pIC50 (CDK1/CycB) | pIC50 (CDK2/CycE) | pIC50 ([6]; DU145, 4 days) | pIC50 ([7]; 96 h, MCF7, 4 days) | pIC50 ([8]; 96 h, Caco-2, 4 days) | other results
1 | C[C@@H](O)[C@@H](C)Nc1nc(Nc2ccc(S(=O)(=O)C3CC3)cc2)ncc1C(F)(F)F [C1, (2R,3R)-3-[2-(4-Cyclopropanesulphonylphenylamino)-5-trifluoromethylpyrimidin-4-ylamino]butan-2-ol, reference compound] | 7.59 | 7.43 | 0.8 | 20.7 ×10⁻⁶ cm/s | 17.4 ×10⁻⁶ cm/s | 7.11 | 7.29 | 7.28 | 8.10 | 8.22 | 7.34 | 7.19 | 7.20 | 
2 | C[C@@H](O)[C@@H](C)Nc1nc(Nc2ccc(S(C)(=O)=O)cc2)ncc1C(F)(F)F [C2, (2R,3R)-3-[2-(4-Methanesulphonylphenylamino)-5-trifluoromethylpyrimidin-4-ylamino]butan-2-ol, reference compound] | 7.49 | 7.47 | 1 | 18 ×10⁻⁶ cm/s | 17.8 ×10⁻⁶ cm/s | 7.05 | 7.04 | 7.46 | 8.40 | 8.40 | 7.12 | 7.37 | 7.12 | 
3 | C[C@@H](Nc1nc(Nc2ccc(S(C)(=O)=O)cc2)ncc1C(F)(F)F)C(C)(C)O [C3, (R)-3-[2-(4-Methanesulphonylphenylamino) 5-trifluoro-methylpyrimidin-4-ylamino]-2-methylbutan-2-ol, reference compound] | 7.43 | 7.03 |  |  |  | 6.97 | 6.72 | 7.62 | 8.05 | 8.10 | 7.22 | 7.21 | 6.88 | 
4 | Clc1cccc(Cl)c1N=C1NCCN1 [Clonidine] |  |  |  |  |  |  |  |  |  |  |  |  |  | absorbed in people [9]: 100%; Papp values of reference marker (Caco-2 monolayer): above 100 nm/s
5 | C[C@H]1O[C@@H](O[C@H]2[C@@H](O)C[C@H](O[C@H]3[C@@H](O)C[C@H](O[C@H]4CC[C@@]5(C)[C@H](CC[C@@H]6[C@@H]5C[C@@H](O)[C@]5(C)[C@@H](C7=CC(=O)OC7)CC[C@]65O)C4)O[C@@H]3C)O[C@@H]2C)C[C@H](O)[C@@H]1O [Digoxin] |  |  |  |  |  |  |  |  |  |  |  |  |  | permeability from apical to basolateral (Caco-2 monolayer; Pgp substrate): low permeability
6 | C[C@@H](O)[C@@H](C)Oc1nc(Nc2ccc(S(=O)(=O)C3CC3)cc2)ncc1C(F)(F)F [Example 1, (2R,3R)-3-[2-(4-Cyclopropanesulphonylphenylamino)-5-trifluoromethylpyrimidin-4-yloxy]butan-2-ol] | 8.05 | 7.39 | 0.9 | 16.5 ×10⁻⁶ cm/s | 14.7 ×10⁻⁶ cm/s | 7.31 |  | 7.70 | 7.80 | 7.80 | 7.77 | 7.64 | 7.35 | pIC50 ([10]; HeLa-MaTu, 4 days): 7.96
7 | C[C@@H](O)[C@@H](C)Oc1nc(Nc2ccc(S(C)(=O)=O)cc2)ncc1C(F)(F)F [Example 2, (2R,3R)-3-[2-(4-Methanesulphonylphenylamino)-5-trifluoromethylpyrimidin-4-yloxy]butan-2-ol] |  |  |  | 19.6 ×10⁻⁶ cm/s | 19.4 ×10⁻⁶ cm/s |  |  | 7.62 |  |  |  |  |  | pIC50 [1]: 7.85; pIC50 ([2]; NCI-H460, 96 h): 7.42; pIC50 [10]: 7.85; pIC50 [4]: 7.15; pIC50 [6]: 7.47; pIC50 ([7]; MCF7, 96 h): 7.46; pIC50 ([8]; Caco-2, 96 h): 7.18
8 | C[C@@H](Oc1nc(Nc2ccc(S(C)(=O)=O)cc2)ncc1C(F)(F)F)C(C)(C)O [Example 3, (R)-3-[2-(4-Methanesulphonylphenylamino)-5-trifluoromethylpyrimidin-4-yloxy]-2-methylbutan-2-ol] | 7.41 | 6.85 |  |  |  | 6.57 |  | 7.11 | 7.49 | 7.92 | 7.13 | 6.80 | 6.74 | pIC50 ([10]; HeLa-MaTu, 4 days): 7.46
9 | C[C@@H](Oc1nc(Nc2ccc(S(=O)(=O)C3CC3)cc2)ncc1C(F)(F)F)C(C)(C)O [Example 4, (R)-3-[2-(4-Cyclopropanesulphonylphenylamino)-5-tri-fluoromethylpyrimidin-4-yloxy]-2-methylbutan-2-ol] | 6.85 | 6.65 |  |  |  | 6.54 |  |  | 7.44 | 7.68 | 6.71 | 6.98 | 6.69 | 
